Square brackets hold non-standard residues; d marks the D form. Peptide text beside a SMILES is read from it. dPhe(4-I) = N[C@H](Cc1ccc(I)cc1)C(=O)O; 2Nal = N[C@@H](Cc1ccc2ccccc2c1)C(=O)O; d2Nal = N[C@H](Cc1ccc2ccccc2c1)C(=O)O

The term EC50 denotes the concentration at which the effect is half-maximal.

Common to all, as to type: functional, cell-based
The target in test [1] is Melanocortin receptor 5 (Mus musculus) (UniProt P41149). The test can be described thus: Agonist activity at mouse MC5R expressed in HEK293 cells assessed as induction of cAMP level at 100 uM incubated for 2 hr by alphaScreen assay relative to control. Particulars: filed as agonist. On the technique in general: cAMP levels reflect the balance of adenylyl cyclase and phosphodiesterase activity.

In test [2] the target is Melanocyte-stimulating hormone receptor (Mus musculus) (UniProt Q01727). Description: Agonist activity at mouse MC1R expressed in HEK293 cells assessed as induction of cAMP level at 100 uM incubated for 2 hr by alphaScreen assay relative to NDP-MSH. Particulars: filed as agonist.
The target of test [3] is T1, Melanocortin receptor 4 (Mus musculus, UniProt P56450). Description: Antagonist activity at mouse melanocortin receptor 4 expressed in HEK293 cells assessed as inhibition of NDP-MSH-induced cAMP accumulation incubated for 2 hrs by cAMP Alpha-screen assay based Schild analysis. Particulars: read-out: pA2 (converted).
Test [4] deals with T1, Melanocortin receptor 4. Description: Agonist activity at mouse MC4R expressed in HEK293 cells assessed as induction of cAMP level incubated for 2 hr by alphaScreen assay.
For test [5], the target named is Melanocortin receptor 3 (Mus musculus) (UniProt P33033). Description: Agonist activity at mouse MC3R expressed in HEK293 cells assessed as induction of cAMP level at 100 uM incubated for 2 hr by alphaScreen assay relative to control.
Test [6] deals with T1, Melanocortin receptor 4. The test can be described thus: Agonist activity at mouse MC4R expressed in HEK293 cells assessed as induction of cAMP level at 100 uM incubated for 2 hr by alphaScreen assay relative to control.
A further test deals with Melanocortin receptor 3 (Mus musculus, UniProt P33033). The test can be described thus: Antagonist activity at mouse melanocortin receptor 3 expressed in HEK293 cells assessed as inhibition of NDP-MSH-induced cAMP accumulation incubated for 2 hrs by cAMP Alpha-screen assay based Schild analysis. Particulars: read-out: pA2 (converted).
Chain of Melanocortin receptor 3 (P33033 whole entry): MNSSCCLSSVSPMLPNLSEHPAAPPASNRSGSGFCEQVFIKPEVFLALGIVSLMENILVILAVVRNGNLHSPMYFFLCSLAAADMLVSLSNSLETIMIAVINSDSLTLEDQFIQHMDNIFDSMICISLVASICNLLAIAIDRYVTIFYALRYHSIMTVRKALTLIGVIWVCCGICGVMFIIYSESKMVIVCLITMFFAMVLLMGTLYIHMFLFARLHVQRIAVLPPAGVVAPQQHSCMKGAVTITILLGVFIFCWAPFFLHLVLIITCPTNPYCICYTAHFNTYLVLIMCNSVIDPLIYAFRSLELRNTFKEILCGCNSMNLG

T1 sequence (P56450 whole entry): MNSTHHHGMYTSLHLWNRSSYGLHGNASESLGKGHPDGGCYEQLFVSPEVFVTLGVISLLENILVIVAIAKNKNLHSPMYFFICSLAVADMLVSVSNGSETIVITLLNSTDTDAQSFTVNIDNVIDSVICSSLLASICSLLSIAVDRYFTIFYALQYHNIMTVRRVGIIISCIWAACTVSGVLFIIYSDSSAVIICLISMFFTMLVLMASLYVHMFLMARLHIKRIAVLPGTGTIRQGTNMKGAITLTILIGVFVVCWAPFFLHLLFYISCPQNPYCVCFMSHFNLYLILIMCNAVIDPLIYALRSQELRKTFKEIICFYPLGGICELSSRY
Chain of Melanocortin receptor 3 (Mus musculus) (P33033 whole entry): as the sequence (P33033 whole entry) above
Chain of Melanocortin receptor 5 (Mus musculus) (P41149 whole entry): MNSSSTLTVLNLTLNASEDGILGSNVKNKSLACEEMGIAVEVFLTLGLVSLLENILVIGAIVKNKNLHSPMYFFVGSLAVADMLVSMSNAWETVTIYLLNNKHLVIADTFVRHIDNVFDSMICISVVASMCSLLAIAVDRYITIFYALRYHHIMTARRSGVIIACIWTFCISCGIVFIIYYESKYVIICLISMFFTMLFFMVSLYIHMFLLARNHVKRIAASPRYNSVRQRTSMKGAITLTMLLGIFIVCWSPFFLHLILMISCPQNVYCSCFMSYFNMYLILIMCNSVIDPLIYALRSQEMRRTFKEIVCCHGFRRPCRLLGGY
Chain of Melanocyte-stimulating hormone receptor (Mus musculus) (Q01727 whole entry, looked up): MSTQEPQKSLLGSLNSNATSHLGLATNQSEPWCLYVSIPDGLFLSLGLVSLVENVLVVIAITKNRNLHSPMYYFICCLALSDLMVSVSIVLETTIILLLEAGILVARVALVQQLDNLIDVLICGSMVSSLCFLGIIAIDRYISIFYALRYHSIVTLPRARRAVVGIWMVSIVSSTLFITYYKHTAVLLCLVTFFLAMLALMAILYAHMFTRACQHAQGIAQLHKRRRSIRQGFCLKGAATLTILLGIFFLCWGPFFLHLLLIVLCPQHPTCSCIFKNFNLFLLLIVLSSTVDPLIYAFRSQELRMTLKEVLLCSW

As to `CC(=O)N[C@H](Cc1ccc(I)cc1)C(=O)N[C@H](Cc1ccc2ccccc2c1)C(=O)N[C@@H](Cc1ccc2ccccc2c1)C(=O)N[C@H](CCCCN)C(N)=O` (Ac-[dPhe(4-I)][d2Nal][2Nal][dK]-NH2), the Activity stood at 50% in test [1], 40% in test [2] and 20% in test [5]. Moreover, the Kb at Melanocortin receptor 4 [3] and on Melanocortin receptor 3 was above 3.16 µM throughout. The EC50 at Melanocortin receptor 4 [4] and at Melanocortin receptor 4 [6] was above 100 µM each time.

The values above are taken from ChEMBL document CHEMBL4828766 (J Med Chem, 2021).
